Test results published in patent US9206226B2, “Non-ionic acid-labile surfactants and methods of use” (Protea Biosciences, Inc., priority 2011, dated 2015).

Target: bovine serum albumin (BSA) (Bos taurus, UniProt P02769)
Assay: MALDI-TOF mass spectra of BSA with surfactant, intact and acid-degraded
Conditions: for BSA MALDI signal after surfactant degradation: degraded about 30 minutes in 1% TFA at pH 2.5
Text: The various embodiments of non-ionic acid-labile surfactants and methods of use described herein may be better understood when read in conjunction with the following representative examples. The following examples are included for purposes of illustration and not limitation. MALDI-TOF spectra were acquired using an ABI 4800 mass spectrometer in the linear mode.
Referring to FIGS. 2A-C, 0.1% N-[2,2-Bis(pentyloxy)propan-1-aminocarbonyl]-β-maltosylamine was mixed with bovine serum albumin (BSA) in water. The samples were spotted onto a MALDI pre-spotted target with CHCA MALDI matrix using C8 reversed phase tips. FIG. 2A includes a mass spectra of 20 pmol BSA in water. BSA was detected at m/z 22344, m/z 33480, and m/z 66854. FIG. 2B includes a mass spectra of 20 pmol BSA dissolved in 0.1% N-[2,2-Bis(pentyloxy)propan-1-aminocarbonyl]-β-maltosylamine. […] FIG. 2C includes a mass spectra of 20 pmol BSA in 0.1% N-[2,2-Bis(pentyloxy)propan-1-aminocarbonyl]-β-maltosylamine after being degraded for about thirty (30) minutes in 1% TFA at pH 2.5. BSA was detected at m/z 22212, m/z 33309, and m/z 66460.
Referring to FIGS. 3A-C, 1% N-[2,2-Bis(pentyloxy)propan-1-aminocarbonyl]-β-maltosylamine was mixed with bovine serum albumin (BSA) in water. The samples were spotted onto a MALDI pre-spotted target with CHCA MALDI matrix using C8 reversed phase tips. FIG. 3A includes a mass spectra of 20 pmol BSA in water. BSA was detected at m/z 22344, m/z 33480, and m/z 66854. FIG. 3B includes a mass spectra of 20 pmol BSA dissolved in 1% N-[2,2-Bis(pentyloxy)propan-1-aminocarbonyl]-β-maltosylamine. […] FIG. 3C includes a mass spectra of 20 pmol BSA in 1% N-[2,2-Bis(pentyloxy)propan-1-aminocarbonyl]-β-maltosylamine after being degraded for about thirty (30) minutes in 1% TFA at pH 2.5. BSA was detected at m/z 22260, m/z 33377, and m/z 66527.
Referring to FIGS. 5A-C, 0.1% N-[2,2-Bis(hexyloxy)propan-1-aminocarbonyl]-β-maltosylamine was mixed with BSA. The samples were spotted onto a MALDI pre-spotted target with CHCA MALDI matrix using C8 reversed phase tips. FIG. 5A includes a mass spectra of 20 pmol BSA in water. BSA was detected at m/z 22344, m/z 33480, and m/z 66854. FIG. 5B includes a mass spectra of 20 pmol BSA dissolved in 0.1% N-[2,2-Bis(hexyloxy)propan-1-aminocarbonyl]-β-maltosylamine. […] FIG. 5C includes a mass spectra of 20 pmol BSA in 0.1% N-[2,2-Bis(phexyloxy)propan-1-aminocarbonyl]-β-maltosylamine after being degraded for about thirty (30) minutes in 1% TFA at pH 2.5. BSA was detected at m/z 22197, m/z 33284, and m/z 66405.

[1] = 20 pmol BSA dissolved in 0.1% surfactant

bovine serum albumin (BSA), sequence (P02769 25-607): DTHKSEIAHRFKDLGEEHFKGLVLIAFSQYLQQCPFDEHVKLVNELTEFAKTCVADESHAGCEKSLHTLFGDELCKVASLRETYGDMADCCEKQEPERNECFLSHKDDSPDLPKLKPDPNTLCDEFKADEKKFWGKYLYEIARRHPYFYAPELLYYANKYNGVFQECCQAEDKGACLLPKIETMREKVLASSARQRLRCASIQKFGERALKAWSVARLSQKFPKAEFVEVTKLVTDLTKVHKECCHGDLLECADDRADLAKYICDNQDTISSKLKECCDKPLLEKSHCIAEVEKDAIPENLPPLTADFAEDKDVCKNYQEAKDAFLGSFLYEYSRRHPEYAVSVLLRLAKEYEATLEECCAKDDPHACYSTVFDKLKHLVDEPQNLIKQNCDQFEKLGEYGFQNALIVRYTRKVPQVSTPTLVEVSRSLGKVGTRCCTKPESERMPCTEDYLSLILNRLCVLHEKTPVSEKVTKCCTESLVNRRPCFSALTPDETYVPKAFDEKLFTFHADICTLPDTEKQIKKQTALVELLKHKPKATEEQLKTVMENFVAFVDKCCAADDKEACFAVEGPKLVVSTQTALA

Row | SMILES | BSA MALDI signal, intact surfactant [1] | BSA MALDI signal after surfactant degradation (0.1% surfactant) | BSA MALDI signal, intact surfactant (20 pmol BSA dissolved in 1% surfactant) | BSA MALDI signal after surfactant degradation (1% surfactant)
1 | CCCCCCOC(C)(CNC(=O)NC1OC(CO)C(OC2OC(CO)C(O)C(O)C2O)C(O)C1O)OCCCCCC (stereo not drawn) [N-[2,2-Bis(hexyloxy)propan-1-aminocarbonyl]-β-maltosylamine] | no signal from the BSA was detected | a signal from the BSA was detected when the surfactant was degraded |  | 
2 | CCCCCOC(C)(CNC(=O)NC1OC(CO)C(OC2OC(CO)C(O)C(O)C2O)C(O)C1O)OCCCCC (stereo not drawn) [N-[2,2-Bis(pentyloxy)propan-1-aminocarbonyl]-β-maltosylamine] | no signal from the BSA was detected | a signal from the BSA was detected when the surfactant was degraded | no signal from the BSA was detected | a signal from the BSA was detected when the surfactant was degraded
